# From patent US20110086759A1, “CHEMICAL COMPOUNDS” (SYNGENTA CROP PROTECTION, INC., priority 2007, published 2011)
# Experiments:
# Format in all cases: in vivo
# [1] = tested on: Alopecurus myosuroides (ALOMY); assay: Post-emergence biological efficacy, glasshouse pot test; settings: 312 h, post-emergence, 1,000 g/ha, evaluated after 13 days (100=total damage; 0=no damage), read-out: Percentage damage caused to weed species, ALOMY
# Summary of the method: (§1)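 Plants were sown in standard soil and grown 8 days in a glasshouse (24/16° C. day/night, 14 hours light, 65% humidity), then sprayed post-emergence at 1000 or 250 g/ha from acetone/water (50:50) with 0.5% Tween 20. Damage was scored visually after 13 days (0 = none, 100 = total).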
# [2] = tested on: Ipomea hederaceae (IPOHE); assay: as above; settings: Ipomoea hederacea, 312 h; post-emergence, 1,000 g/ha, evaluated after 13 days (100=total damage; 0=no damage); read-out: Percentage damage caused to weed species, IPOHE
# Summary of the method: as §1
# [3] = tested on: Amaranthus retoflexus (AMARE); assay: as above; settings: Amaranthus retroflexus, 312 h; post-emergence, 1,000 g/ha, evaluated after 13 days (100=total damage; 0=no damage); read-out: Percentage damage caused to weed species, AMARE
# Summary of the method: as §1
# [4] = tested on: Setaria faberi (SETFA); assay: as above; settings: 312 h, post-emergence, 1,000 g/ha, evaluated after 13 days (100=total damage; 0=no damage), read-out: Percentage damage caused to weed species, SETFA
# Summary of the method: as §1
# [5] = tested on: Solanum nigrum (SOLNI); assay: as above; settings: 312 h, post-emergence, 1,000 g/ha, evaluated after 13 days (100=total damage; 0=no damage), read-out: Percentage damage caused to weed species, SOLNI
# Summary of the method: as §1
# [6] = tested on: Echinochloa crus-galli (ECHCG); assay: as above; settings: 312 h, post-emergence, 1,000 g/ha, evaluated after 13 days (100=total damage; 0=no damage), read-out: Percentage damage caused to weed species, ECHCG
# Summary of the method: as §1
# [7] = tested on: Alopecurus myosuroides (ALOMY); assay: Pre-emergence biological efficacy, glasshouse pot test; settings: 312 h, pre-emergence, 1,000 g/ha, evaluated after 13 days (100=total damage; 0=no damage), read-out: Percentage damage ALOMY
# Summary of the method: (§2)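 Compound was applied as a spray one day after sowing, at a final dose of 1000 or 250 g/ha. Plants grew under 14 h light, 24/16 °C and 65% humidity, and injury was assessed on day 13 on a 0–100 scale.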
# [8] = tested on: Ipomea hederaceae (IPOHE); assay: as above; settings: Ipomoea hederacea, 312 h; pre-emergence, 1,000 g/ha, evaluated after 13 days (100=total damage; 0=no damage); read-out: Percentage damage IPOHE
# Summary of the method: as §2
# [9] = tested on: Amaranthus retoflexus (AMARE); assay: as above; settings: Amaranthus retroflexus, 312 h; pre-emergence, 1,000 g/ha, evaluated after 13 days (100=total damage; 0=no damage); read-out: Percentage damage AMARE
# Summary of the method: as §2
# [10] = tested on: Setaria faberi (SETFA); assay: as above; settings: 312 h, pre-emergence, 1,000 g/ha, evaluated after 13 days (100=total damage; 0=no damage), read-out: Percentage damage SETFA
# Summary of the method: as §2
# [11] = tested on: Solanum nigrum (SOLNI); assay: as above; settings: 312 h, pre-emergence, 1,000 g/ha, evaluated after 13 days (100=total damage; 0=no damage), read-out: Percentage damage SOLNI
# Summary of the method: as §2
# [12] = tested on: Echinochloa crus-galli (ECHCG); assay: as above; settings: 312 h, pre-emergence, 1,000 g/ha, evaluated after 13 days (100=total damage; 0=no damage), read-out: Percentage damage ECHCG
# Summary of the method: as §2
SMILES,pest or weed control at 1000 g/ha [1] [%],pest or weed control at 1000 g/ha [2] [%],pest or weed control at 1000 g/ha [3] [%],pest or weed control at 1000 g/ha [4] [%],pest or weed control at 1000 g/ha [5] [%],pest or weed control at 1000 g/ha [6] [%],pest or weed control at 1000 g/ha [7] [%],pest or weed control at 1000 g/ha [8] [%],pest or weed control at 1000 g/ha [9] [%],pest or weed control at 1000 g/ha [10] [%],pest or weed control at 1000 g/ha [11] [%],pest or weed control at 1000 g/ha [12] [%]
"CCC(Nc1nc(C2CC2)nc(C(=O)OC)c1Cl)c1ccccc1 (stereo not drawn) [Compound 4-194, 5-Chloro-2-cyclopropyl-6-methoxycarbonyl-4-(1-phenylpropyl-amino)pyrimidine]",10,100,100,80,100,60,10,90,100,10,60,20
"C=CC(Nc1nc(C2CC2)nc(C(=O)OC)c1Cl)c1ccccc1 (stereo not drawn) [Compound 4-197, 5-Chloro-2-cyclopropyl-6-methoxycarbonyl-4-(1-phenylprop-2-en-1-yl-amino)-pyrimidine]",40,100,100,80,90,70,20,100,90,20,90,40
"C=CCC(Nc1nc(C2CC2)nc(C(=O)OC)c1Cl)c1ccc(Cl)cc1 (stereo not drawn) [Compound 4-198, 5-Chloro-4-[1-(4-chlorophenyl)but-3-en-1-yl-amino]-2-cyclopropyl-6-methoxycarbonyl-pyrimidine]",20,60,40,40,30,0,0,70,30,0,20,0
"C=CCC(Nc1nc(C2CC2)nc(C(=O)OC)c1Cl)c1ccccn1 (stereo not drawn) [Compound 4-199, 5-Chloro-2-cyclopropyl-6-methoxycarbonyl-4-[1-(pyrid-2-yl)-but-3-enylamino]-pyrimidine]",0,80,50,0,60,0,0,40,0,0,0,0
"COC(=O)c1nc(C2CC2)nc(NC(c2ccc(Cl)cc2)C2CC2)c1Cl (stereo not drawn) [Compound 4-200, 5-Chloro-4-[1-(4-chlorophenyl)-1-(cyclopropyl)methyl-amino]-2-cyclopropyl-6-methoxycarbonyl-pyrimidine]",20,90,100,40,80,20,0,50,20,0,0,0
"COC(=O)c1nc(C2CC2)nc(NC(CO)C2CCOC2)c1Cl (stereo not drawn) [Compound 4-201, 5-Chloro-2-cyclopropyl-4-(2-hydroxy-1-tetrahydrofuran-3-yl-ethylamino)-6-methoxycarbonyl-pyrimidine]",10,60,100,20,90,10,0,100,100,10,100,20
"COC(=O)c1nc(C2CC2)nc(NC(CO)C2CCOCC2)c1Cl (stereo not drawn) [Compound 4-202, 5-Chloro-2-cyclopropyl-4-(2-hydroxy-1-tetrahydropyran-4-yl-ethylamino)-6-methoxycarbonyl-pyrimidine]",10,50,100,30,80,0,20,100,60,30,70,30
"COC(=O)c1nc(C2CC2)nc(NC(CO)c2ccccc2)c1Cl (stereo not drawn) [Compound 4-203, 5-Chloro-2-cyclopropyl-4-(2-hydroxy-1-phenyl-ethylamino)-6-methoxycarbonyl-pyrimidine]",40,50,100,40,80,30,30,100,100,60,80,60
"COC(=O)c1nc(C2CC2)nc(NC(CS(C)(=O)=O)c2ccc(OC)cc2)c1Cl (stereo not drawn) [Compound 4-205, 5-Chloro-2-cyclopropyl-6-methoxycarbonyl-4-[1-(4-methoxy-phenyl)-2-methylsulphonyl-ethylamino]-pyrimidine]",0,20,20,0,10,0,0,0,0,0,0,0
"COC(=O)c1nc(C2CC2)nc(NC(C(=O)OC)c2ccccc2)c1Cl (stereo not drawn) [Compound 4-210, 5-Chloro-2-cyclopropyl-6-methoxycarbonyl-4-(1-methoxy-carbonyl-1-phenyl-methylamino)-pyrimidine]",60,40,50,80,40,60,20,100,100,20,90,50
"CCOC(=O)C(Nc1nc(C2CC2)nc(C(=O)OC)c1Cl)c1ccccc1 (stereo not drawn) [Compound 4-214, 5-Chloro-2-cyclopropyl-4-[(1-ethoxycarbonyl-1-phenyl)-methyl-amino]-6-methoxy-carbonylpyrimidine]",50,100,100,70,80,70,20,100,100,40,90,60
